Assay [1] deals with Triosephosphate isomerase, chloroplastic (Secale cereale) (UniProt P46225). The assay can be described thus: Inhibition of desalted triosephosphate isomerase in Lolium multiflorum (Italian ryegrass) shoot assessed as transformation of GAP to DHAP applied at concentration of 14.4 mg/flat measured per mg protein after 48 hr by coupled enzyme assay (reference value: 9.80 +/-0.43 nmol/sec).

For assay [2] the target is unchanged. Description: Inhibition of desalted triosephosphate isomerase in Lolium multiflorum (Italian ryegrass) shoot assessed as decrease in transformation of GAP to DHAP applied at concentration of 14.4 mg/flat measured after 48 hr by coupled enzyme assay.
For assay [3] the target is unchanged. Description: Inhibition of desalted triosephosphate isomerase in Lolium multiflorum (Italian rye grass) shoot assessed as transformation of GAP to DHAP applied at concentration of 4.43 mg/flat measured per mg protein after 48 hr by coupled enzyme assay (reference value: 9.80 +/-0.43 nmol/sec).
The target is the same in assay [4]. Description: Inhibition of desalted triosephosphate isomerase in Lolium multiflorum (Italian rye grass) shoot assessed as transformation of GAP to DHAP applied at concentration of 20.0 mg/flat measured per mg protein after 48 hr by coupled enzyme assay (reference value: 9.80 +/-0.43 nmol/sec).
Assay [5] shares this target. Description: Inhibition of desalted triosephosphate isomerase in Lolium multiflorum (Italian ryegrass) shoot assessed as transformation of GAP to DHAP applied at concentration of 1.80 mg/flat measured per mg protein after 48 hr by coupled enzyme assay (reference value: 9.80 +/-0.43 nmol/sec).

The structures appear in SMILES notation.

Sequence of Triosephosphate isomerase, chloroplastic (Secale cereale) (P46225 whole entry): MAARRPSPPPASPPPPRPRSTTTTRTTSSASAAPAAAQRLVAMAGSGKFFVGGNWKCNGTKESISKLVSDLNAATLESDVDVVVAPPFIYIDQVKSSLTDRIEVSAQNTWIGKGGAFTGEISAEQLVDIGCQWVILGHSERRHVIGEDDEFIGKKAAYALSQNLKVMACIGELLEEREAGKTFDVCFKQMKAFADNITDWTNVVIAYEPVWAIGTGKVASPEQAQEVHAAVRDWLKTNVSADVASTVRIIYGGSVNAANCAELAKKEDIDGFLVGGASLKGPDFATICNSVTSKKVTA

Consider `CCNc1nc(Cl)nc(NC(C)C)n1`, for which the Activity in assay [1] was found to be 7.2 nmol/s. In assay [2], the inhibition was determined as 26.5%. With `CCOC(=O)c1nc(C(Cl)(Cl)Cl)n(-c2ccc(Cl)cc2Cl)n1`, in assay [3], the Activity worked out at 10.2 nmol/s. For the molecule `CCc1cccc(C)c1N(C(=O)CCl)C(C)COC` (configuration not stated), the Activity in assay [4] turned out to be 9.57 nmol/s. `O=[N+]([O-])c1ccc(Oc2ccc(C(F)(F)F)cc2[N+](=O)[O-])cc1`: in assay [1], the Activity stood at 6.28 nmol/s. Further, in assay [2], the inhibition is 35.9%.

As for `CCOC(=O)C(C)Oc1ccc(Oc2nc3ccc(Cl)cc3o2)cc1` (configuration not stated), the Activity in assay [5] was found to be 9.3 nmol/s.

These data come from ChEMBL document CHEMBL3046826, “Triosephosphate isomerases in Italian ryegrass ( Lolium multiflorum ): characterization and susceptibility to herbicides” (J Agric Food Chem, 2009).
